# Test results: article PMC4104029, “Mechanism of Action of Compound-13: An α1-Selective Small Molecule Activator of AMPK” (Chemistry & Biology, 2014)
# Assays:
# [1] = target: T1, muscle glycogen phosphorylase b (Mus musculus, UniProt Q9WUB3); assay: Glycogen phosphorylase assay; assay type: biochemical; conditions: concentrations up to 100 μM; data not shown
# T1 construct: made in house; host or cells: E. coli
# Description: Supplemental Experimental Procedures:
# Materials. Compounds 2 and 13 were synthesised by PeakDale Molecular and Natalia Shpiro (MRC-PPU, Dundee), respectively, as described previously (Gomez-Galeno, et al., 2010).
# A769662 was from Selleck Chemicals and AICAR from Toronto Research Chemicals. Mouse FBP1, PYGM and PFK1 (muscle isoform) were cloned, expressed and purified from E.coli using standard techniques. AMPD was purified from chicken muscle (Smiley, et al., 1967).
# PP2Cα expressed in E.coli was from the Division of Signal Transduction Therapy (DSTT, Dundee). Peptides were synthesised by GL Biochem (Shanghai). [γ-32P]-ATP, [1-14C]-acetic acid and [9,10-3H(N)]-palmitic acid were from PerkinElmer. pS79 ACC1 (#3661), ACC1 […]
# antibodies were purchased from Cell Signaling Technology. Anti-AMPKα1 (07-350) and AMPKα2 (07-363) used for immunoblotting were from Merck-Millipore. Anti-AMPKγ1 was from Origene (clone Y308). Anti-AMPKγ2 was from Epitomics (S1562). Anti-tubulin (B-5-1-2), anti-FLAG (F7425) and anti-FLAG M2 agarose were from Sigma. Anti-HA (HA.11) was from Covance Research Products. AMPKα1/2 antibodies used for immunoprecipitation kinase assays were described previously (Sakamoto, et al., 2006). […]
# AMPK preparations. […] Isolated human AMPKα subunits were expressed as N-terminal GST-fusions in E.coli and activated as described for heterotrimeric complexes. […]
# [2] = target: AMPKα2β1γ1 Thr172 dephosphorylation by PP2Cα (Homo sapiens, UniProt P54619+P54646); assay: Phosphatase protection assay (PP2Cα); assay type: biochemical; conditions: incubation with PP2Cα; 1–10 μM
# Description: Figure 2 C2 Is a Partial Agonist of α2 Complexes and Selectively Protects α1 Complexes against Dephosphorylation by PP2C (A and B) Recombinant AMPKα1β1γ1 (A) or AMPKα2β1γ1 (B) was assayed in the presence of AMP (30 μM) and increasing concentrations of C2 (0–20 μM). Results are expressed as fold increase in activity relative to controls without ligand and represent the mean ± SD for three independent experiments. (C and D) The effects of C2 and AMP on dephosphorylation and inactivation of AMPKα1β1γ1 (C) and α2β1γ1 (D) by PP2Cα (present in all assay conditions). Results are expressed as a percentage of control reactions performed in the absence of Mg^2+ and represent the mean ± SD of three independent experiments. Representative blots of pT172 and total AMPKα are shown below the bar charts. (E) AMPKα1β1γ2 WT (open bars) and mutant complexes (β1 ΔCBD [β1 Δ1–185], gray bars, and γ2 R531G, black bars) were purified from COS1 cells by transient overexpression of the indicated constructs, as described in Methods, and assayed in the presence of the indicated compounds under standard conditions. Results are expressed as the fold increase in activity relative to controls in the absence of compound and represent the mean ± SD for three independent experiments.
# AMPKα1β1γ1 or α2β1γ1 was dephosphorylated in vitro with PP2Cα in 50 mM HEPES pH 7.4, 10 mM MgCl2, 0.1 mM EGTA, 0.03% BRIJ-35, 1 mM DTT, and the indicated compounds for 15 min at 30°C. Mg^2+ was omitted from the negative control. Reactions were terminated by 20-fold dilution and storage on ice. AMPK activity was assayed under standard conditions in the presence of saturating AMP (200 μM). The results are expressed as percentage activity of the negative control. In control experiments, PP2Cα activity was determined in reactions containing 50 mM TES pH 7.4, 0.1 mM EGTA, 25 mM MgCl2, 0.01% BRIJ-35, 0.02% (v/v) 2-mercaptoethanol, and 100 μM EFLR(pT)SCGS (168–176 AMPKα2). Liberated phosphate was determined using malachite green ([Baykov et al., 1988]).
# T1 sequence (Q9WUB3 whole entry): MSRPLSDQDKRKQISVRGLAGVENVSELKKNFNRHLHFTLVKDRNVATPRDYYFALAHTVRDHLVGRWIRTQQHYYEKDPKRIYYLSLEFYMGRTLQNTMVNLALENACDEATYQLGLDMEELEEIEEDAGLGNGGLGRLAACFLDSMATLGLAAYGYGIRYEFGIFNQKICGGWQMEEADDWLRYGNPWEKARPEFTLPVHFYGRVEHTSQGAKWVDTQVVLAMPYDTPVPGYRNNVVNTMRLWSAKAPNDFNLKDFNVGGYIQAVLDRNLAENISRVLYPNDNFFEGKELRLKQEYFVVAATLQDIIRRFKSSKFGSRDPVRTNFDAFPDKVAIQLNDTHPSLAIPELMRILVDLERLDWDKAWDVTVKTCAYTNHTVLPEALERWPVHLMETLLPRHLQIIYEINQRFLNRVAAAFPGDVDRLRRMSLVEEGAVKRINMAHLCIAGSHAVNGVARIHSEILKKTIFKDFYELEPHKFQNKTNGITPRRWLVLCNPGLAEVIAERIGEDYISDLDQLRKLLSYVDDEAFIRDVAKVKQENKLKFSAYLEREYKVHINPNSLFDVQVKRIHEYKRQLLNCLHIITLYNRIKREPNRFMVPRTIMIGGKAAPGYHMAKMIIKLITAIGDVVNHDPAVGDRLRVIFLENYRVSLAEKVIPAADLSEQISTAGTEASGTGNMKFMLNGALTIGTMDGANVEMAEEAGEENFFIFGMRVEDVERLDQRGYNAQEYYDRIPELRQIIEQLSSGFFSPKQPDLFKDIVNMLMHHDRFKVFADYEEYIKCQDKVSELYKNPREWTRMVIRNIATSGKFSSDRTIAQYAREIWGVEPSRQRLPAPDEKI
# Chain of AMPKα2β1γ1 Thr172 dephosphorylation by PP2Cα (P54646 whole entry): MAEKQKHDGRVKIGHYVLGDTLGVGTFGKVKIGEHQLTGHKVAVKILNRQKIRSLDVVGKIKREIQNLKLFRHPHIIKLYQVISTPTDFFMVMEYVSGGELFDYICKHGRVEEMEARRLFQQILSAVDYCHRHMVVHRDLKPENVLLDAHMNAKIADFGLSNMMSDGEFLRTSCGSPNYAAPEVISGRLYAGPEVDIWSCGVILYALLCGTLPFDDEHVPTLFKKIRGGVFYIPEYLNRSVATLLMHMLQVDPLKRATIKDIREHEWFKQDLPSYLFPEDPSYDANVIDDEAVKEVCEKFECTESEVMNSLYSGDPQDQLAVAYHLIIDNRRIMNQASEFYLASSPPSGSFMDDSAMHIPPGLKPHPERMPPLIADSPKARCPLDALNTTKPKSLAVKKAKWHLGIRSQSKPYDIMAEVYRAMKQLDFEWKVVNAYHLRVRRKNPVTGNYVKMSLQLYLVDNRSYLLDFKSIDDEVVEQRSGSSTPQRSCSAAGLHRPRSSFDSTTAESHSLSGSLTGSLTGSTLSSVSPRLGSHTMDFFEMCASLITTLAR
# Chain of AMPKα2β1γ1 Thr172 dephosphorylation by PP2Cα (Q9Y478 whole entry partner): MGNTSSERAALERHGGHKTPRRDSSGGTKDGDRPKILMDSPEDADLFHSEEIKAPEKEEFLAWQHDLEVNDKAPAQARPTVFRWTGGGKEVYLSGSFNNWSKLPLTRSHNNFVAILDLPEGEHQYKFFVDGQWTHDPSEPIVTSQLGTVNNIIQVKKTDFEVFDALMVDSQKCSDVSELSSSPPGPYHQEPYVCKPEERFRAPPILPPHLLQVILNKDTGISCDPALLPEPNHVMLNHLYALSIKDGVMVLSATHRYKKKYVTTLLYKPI
# Chain of AMPKα2β1γ1 Thr172 dephosphorylation by PP2Cα (P54619 whole entry): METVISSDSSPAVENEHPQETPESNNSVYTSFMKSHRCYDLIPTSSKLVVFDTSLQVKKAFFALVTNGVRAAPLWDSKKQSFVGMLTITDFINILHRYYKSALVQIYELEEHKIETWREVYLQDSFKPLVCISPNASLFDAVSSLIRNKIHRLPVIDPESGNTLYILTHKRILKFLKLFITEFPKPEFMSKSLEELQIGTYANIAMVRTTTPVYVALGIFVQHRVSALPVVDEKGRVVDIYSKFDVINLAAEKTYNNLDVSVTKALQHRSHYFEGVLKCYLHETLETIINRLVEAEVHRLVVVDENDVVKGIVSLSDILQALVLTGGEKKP
structure (smiles),measurement,setting,value
"O=P(O)(O)c1ccc(-c2cc(O)on2)o1 [Compound C2, 5-(5-hydroxyl-isoxazol-3-yl)-furan-2-phosphonic acid]",effect on enzyme activity,[1],None of these enzymes were affected
same,effect on dephosphorylation,[2],essentially no effect
